System: cynomolgus monkeys
Experiment: 4-week safety study: necropsy, gross pathology and organ weights;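 note: daily nasogastric dosing for 28 days, organs weighed at necropsy on day 28 or after a 28-day drug-free recovery (day 56), relative weights expressed as percent of body or brain weight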
Description: Cynomolgus monkeys (5/sex/group) were selected using a computerized randomization procedure based on body weight, and the compound of Formula I was administered to the cynomolgus monkeys by nasogastric feeding at dose levels of 0 (control), 20, 100, 450 mg/kg/day in a volume of 5 ml/kg. Individual dose volumes were adjusted weekly based on body weight of animals. For all the groups, 2/3 of the animals were randomly selected and euthanized on day 28. The remaining animals were euthanized after 28-day drug free period.
A complete gross necropsy was conducted on all animals by visual inspection at the end of the exposure period (day 28) and the recovery phase (day 56). The following selected organs were trimmed, weighed and evaluated in terms of absolute weight and as a percentage of final body weight or brain weight: brain, heart, kidney, liver, spleen, thymus, testes, epididymides, uterus, ovaries, adrenals and thyroid (including the parathyroid). The following tissues were preserved in 10% neutral buffered formalin: brain, pituitary gland, thyroid (including the parathyroid), trachea, heart, pancreas, spleen, adrenal glands, prostate, ovaries, uterus (including cervix uteri and oviduct), vagina, testes, epididymides, seminal vesicle, esophagus, duodenum, jejunum, ileum, cecum, colon, rectum, mesenteric lymph nodes, Peyer's patches, submaxillary lymph nodes, aorta, eyes, skeletal muscle, sciatic nerve, femur (including metaphysis), mammary gland, sternum, salivary glands, spinal cord, urinary bladder, lung (including the bronchi), liver, kidneys, stomach, bone marrow (sternal), thymus, sternum, gallbladder, any gross lesions or masses. The lung tissue was inflated with fixative at the time of necropsy. All the preserved tissues were paraffin embedded, sectioned, stained with hematoxylin and eosin (HE) and examined microscopically. Bone marrow cellular morphology examination was conducted with both smear (sternum) and paraffin-embedded sternum section.
For each sex, body weight, rectal temperature, ECG, organ weight, hematological parameters and serum biochemical data were analyzed with a statistical software SAS 9.3. Firstly homogeneity of variance was analyzed using Levene's test. If P>0.05, the one-way ANOVA analysis was employed. If P<0.05, the Kruskal-Wallis test was used. If the resulting ANOVA p-value was <0.05, a comparison of each group using the Dunnett T test was performed. If the resulting Kruskal-Wallis test p-value was <0.05, then the Dunnett T test was performed after data rank conversion.

## COC(=O)NCCCn1nc([C@@H](C)N(C(=O)[C@H]2CNCCO2)C2CC2)c2ccc(C)nc21 [compound of Formula I]
Female, 20 mg/kg, d 28
  Liver Absolute weight: 58.37 ± 7.38 g
  Liver Relative weight (/body weight): 2.06 ± 0.22
  Liver Relative weight (/brain weight): 90.10 ± 7.72
  Thymus Absolute weight: 1.23 ± 0.40 g
  Thymus Relative weight (/body weight): 0.04 ± 0.01
  Thymus Relative weight (/brain weight): 1.87 ± 0.46
  Uterus Absolute weight: 5.97 ± 1.20 g
  Uterus Relative weight (/body weight): 0.21 ± 0.04
  Uterus Relative weight (/brain weight): 9.19 ± 1.57
  kidney Absolute weight: 12.20 ± 2.23 g
  kidney Relative weight (/body weight): 0.43 ± 0.07
  kidney Relative weight (/brain weight): 18.73 ± 1.74
Female, 20 mg/kg, d 56
  Liver Absolute weight: 68.35 ± 3.32 g
  Liver Relative weight (/body weight): 2.01 ± 0.07
  Liver Relative weight (/brain weight): 104.00 ± 10.62
  Thymus Absolute weight: 2.00 ± 0.71 g
  Thymus Relative weight (/body weight): 0.06 ± 0.02
  Thymus Relative weight (/brain weight): 3.07 ± 1.24
  Uterus Absolute weight: 11.30 ± 3.25 g
  Uterus Relative weight (/body weight): 0.33 ± 0.07
  Uterus Relative weight (/brain weight): 17.30 ± 5.86
  kidney Absolute weight: 13.75 ± 0.78 g
  kidney Relative weight (/body weight): 0.41 ± 0.06
  kidney Relative weight (/brain weight): 20.86 ± 0.06
Female, 100 mg/kg, d 28
  Liver Absolute weight: 57.60 ± 4.25 g
  Liver Relative weight (/body weight): 1.96 ± 0.13
  Liver Relative weight (/brain weight): 96.55 ± 7.51
  Thymus Absolute weight: 0.73 ± 0.50 g
  Thymus Relative weight (/body weight): 0.02 ± 0.02
  Thymus Relative weight (/brain weight): 1.18 ± 0.73
  Uterus Absolute weight: 7.03 ± 0.94 g
  Uterus Relative weight (/body weight): 0.24 ± 0.03
  Uterus Relative weight (/brain weight): 11.84 ± 2.02
  kidney Absolute weight: 11.67 ± 0.71 g
  kidney Relative weight (/body weight): 0.40 ± 0.02
  kidney Relative weight (/brain weight): 19.61 ± 1.86
Female, 100 mg/kg, d 56
  Liver Absolute weight: 68.45 ± 20.01 g
  Liver Relative weight (/body weight): 1.86 ± 0.37
  Liver Relative weight (/brain weight): 104.90 ± 37.06
  Thymus Absolute weight: 2.35 ± 0.49 g
  Thymus Relative weight (/body weight): 0.07 ± 0.02
  Thymus Relative weight (/brain weight): 3.54 ± 0.52
  Uterus Absolute weight: 8.30 ± 3.39 g
  Uterus Relative weight (/body weight): 0.23 ± 0.12
  Uterus Relative weight (/brain weight): 12.44 ± 4.34
  kidney Absolute weight: 14.15 ± 2.33 g
  kidney Relative weight (/body weight): 0.39 ± 0.03
  kidney Relative weight (/brain weight): 21.60 ± 4.92
Female, 450 mg/kg, d 28
  Liver Absolute weight: 69.40 ± 3.68 g
  Liver Relative weight (/body weight): 2.78 ± 0.31
  Liver Relative weight (/brain weight): 112.03 ± 12.42
  Thymus Absolute weight: 0.50 ± 0.14 g
  Thymus Relative weight (/body weight): 0.02 ± 0.01
  Thymus Relative weight (/brain weight): 0.81 ± 0.27
  Uterus Absolute weight: 3.50 ± 0.14 g
  Uterus Relative weight (/body weight): 0.14 ± 0.01
  Uterus Relative weight (/brain weight): 5.63 ± 0.10
  kidney Absolute weight: 12.95 ± 0.07 g
  kidney Relative weight (/body weight): 0.52 ± 0.03
  kidney Relative weight (/brain weight): 20.87 ± 1.10
Female, 450 mg/kg, d 56
  Liver Absolute weight: 72.40 ± 11.74 g
  Liver Relative weight (/body weight): 2.04 ± 0.05
  Liver Relative weight (/brain weight): 109.03 ± 13.64
  Thymus Absolute weight: 1.40 ± 0.14 g
  Thymus Relative weight (/body weight): 0.04 ± 0.01
  Thymus Relative weight (/brain weight): 2.12 ± 0.29
  Uterus Absolute weight: 9.60 ± 2.40 g
  Uterus Relative weight (/body weight): 0.27 ± 0.03
  Uterus Relative weight (/brain weight): 14.43 ± 3.09
  kidney Absolute weight: 14.75 ± 1.91 g
  kidney Relative weight (/body weight): 0.42 ± 0.00
  kidney Relative weight (/brain weight): 22.23 ± 2.05
Male, 20 mg/kg, d 28
  Liver Absolute weight: 69.03 ± 2.87 g
  Liver Relative weight (/body weight): 1.82 ± 0.21
  Liver Relative weight (/brain weight): 103.68 ± 11.79
  Thymus Absolute weight: 1.10 ± 0.20 g
  Thymus Relative weight (/body weight): 0.03 ± 0.01
  Thymus Relative weight (/brain weight): 1.67 ± 0.43
  kidney Absolute weight: 14.30 ± 1.42 g
  kidney Relative weight (/body weight): 0.37 ± 0.02
  kidney Relative weight (/brain weight): 21.46 ± 2.99
Male, 20 mg/kg, d 56
  Liver Absolute weight: 71.25 ± 1.77 g
  Liver Relative weight (/body weight): 1.44 ± 0.02
  Liver Relative weight (/brain weight): 100.96 ± 1.74
  Thymus Absolute weight: 2.95 ± 0.07 g
  Thymus Relative weight (/body weight): 0.06 ± 0.00
  Thymus Relative weight (/brain weight): 4.18 ± 0.08
  kidney Absolute weight: 16.40 ± 3.11 g
  kidney Relative weight (/body weight): 0.33 ± 0.06
  kidney Relative weight (/brain weight): 23.16 ± 3.43
Male, 100 mg/kg, d 28
  Liver Absolute weight: 72.93 ± 14.69 g
  Liver Relative weight (/body weight): 1.83 ± 0.25
  Liver Relative weight (/brain weight): 100.31 ± 9.48
  Thymus Absolute weight: 1.57 ± 0.90 g
  Thymus Relative weight (/body weight): 0.04 ± 0.03
  Thymus Relative weight (/brain weight): 2.27 ± 1.44
  kidney Absolute weight: 15.13 ± 3.62 g
  kidney Relative weight (/body weight): 0.37 ± 0.06
  kidney Relative weight (/brain weight): 20.85 ± 3.95
Male, 100 mg/kg, d 56
  Liver Absolute weight: 84.75 ± 5.59 g
  Liver Relative weight (/body weight): 1.76 ± 0.06
  Liver Relative weight (/brain weight): 115.98 ± 8.59
  Thymus Absolute weight: 2.45 ± 0.35 g
  Thymus Relative weight (/body weight): 0.05 ± 0.01
  Thymus Relative weight (/brain weight): 3.33 ± 0.02
  kidney Absolute weight: 17.85 ± 1.91 g
  kidney Relative weight (/body weight): 0.37 ± 0.03
  kidney Relative weight (/brain weight): 24.36 ± 0.80
Male, 450 mg/kg, d 28
  Liver Absolute weight: 94.37 ± 12.72 g
  Liver Relative weight (/body weight): 2.42 ± 0.20
  Liver Relative weight (/brain weight): 135.54 ± 14.14
  Thymus Absolute weight: 0.90 ± 0.10 g
  Thymus Relative weight (/body weight): 0.02 ± 0.01
  Thymus Relative weight (/brain weight): 1.30 ± 0.20
  kidney Absolute weight: 16.77 ± 2.31 g
  kidney Relative weight (/body weight): 0.43 ± 0.03
  kidney Relative weight (/brain weight): 24.07 ± 2.45
Male, 450 mg/kg, d 56
  Liver Absolute weight: 80.90 ± 4.95 g
  Liver Relative weight (/body weight): 1.64 ± 0.22
  Liver Relative weight (/brain weight): 119.80 ± 2.56
  Thymus Absolute weight: 2.20 ± 0.42 g
  Thymus Relative weight (/body weight): 0.04 ± 0.01
  Thymus Relative weight (/brain weight): 3.25 ± 0.50
  kidney Absolute weight: 18.75 ± 0.21 g
  kidney Relative weight (/body weight): 0.38 ± 0.02
  kidney Relative weight (/brain weight): 27.81 ± 1.42
high-dose monkeys
  absolute or relative weight of uterus: lower
  relative weight of liver and kidney: Higher
  relative weight of thymus: lower
Necropsy day 28 / day 56
  macroscopic findings related to administration: no macroscopic findings for monkeys deemed related to administration of the test article except mild intestinal tympanites and thymus atrophy for the monkey that died early
